From patent publication US20260297094A1, “Tetracyclic Compounds as SMARCA2 and/or SMARCA4 Degraders” (Aurigene Oncology Limited, priority 2023, published 2026)
Structures can show the parent of a compound that is named as a salt.

Tests used:
Format in all cases: cell-based
SMARCA4 = molecular target: T1, SMARCA4 (Homo sapiens, UniProt P51532); assay: SMARCA4 degradation in MV-4-11 cells by Western blot; details: MV4-11, at 100 nM, 16 hours, vs DMSO, read-out: Percent degradation SMARCA4
T1 construct: endogenous in cells; host or cells: MV-4-11 (CRL-9591)
T1 sequence (P51532 whole entry): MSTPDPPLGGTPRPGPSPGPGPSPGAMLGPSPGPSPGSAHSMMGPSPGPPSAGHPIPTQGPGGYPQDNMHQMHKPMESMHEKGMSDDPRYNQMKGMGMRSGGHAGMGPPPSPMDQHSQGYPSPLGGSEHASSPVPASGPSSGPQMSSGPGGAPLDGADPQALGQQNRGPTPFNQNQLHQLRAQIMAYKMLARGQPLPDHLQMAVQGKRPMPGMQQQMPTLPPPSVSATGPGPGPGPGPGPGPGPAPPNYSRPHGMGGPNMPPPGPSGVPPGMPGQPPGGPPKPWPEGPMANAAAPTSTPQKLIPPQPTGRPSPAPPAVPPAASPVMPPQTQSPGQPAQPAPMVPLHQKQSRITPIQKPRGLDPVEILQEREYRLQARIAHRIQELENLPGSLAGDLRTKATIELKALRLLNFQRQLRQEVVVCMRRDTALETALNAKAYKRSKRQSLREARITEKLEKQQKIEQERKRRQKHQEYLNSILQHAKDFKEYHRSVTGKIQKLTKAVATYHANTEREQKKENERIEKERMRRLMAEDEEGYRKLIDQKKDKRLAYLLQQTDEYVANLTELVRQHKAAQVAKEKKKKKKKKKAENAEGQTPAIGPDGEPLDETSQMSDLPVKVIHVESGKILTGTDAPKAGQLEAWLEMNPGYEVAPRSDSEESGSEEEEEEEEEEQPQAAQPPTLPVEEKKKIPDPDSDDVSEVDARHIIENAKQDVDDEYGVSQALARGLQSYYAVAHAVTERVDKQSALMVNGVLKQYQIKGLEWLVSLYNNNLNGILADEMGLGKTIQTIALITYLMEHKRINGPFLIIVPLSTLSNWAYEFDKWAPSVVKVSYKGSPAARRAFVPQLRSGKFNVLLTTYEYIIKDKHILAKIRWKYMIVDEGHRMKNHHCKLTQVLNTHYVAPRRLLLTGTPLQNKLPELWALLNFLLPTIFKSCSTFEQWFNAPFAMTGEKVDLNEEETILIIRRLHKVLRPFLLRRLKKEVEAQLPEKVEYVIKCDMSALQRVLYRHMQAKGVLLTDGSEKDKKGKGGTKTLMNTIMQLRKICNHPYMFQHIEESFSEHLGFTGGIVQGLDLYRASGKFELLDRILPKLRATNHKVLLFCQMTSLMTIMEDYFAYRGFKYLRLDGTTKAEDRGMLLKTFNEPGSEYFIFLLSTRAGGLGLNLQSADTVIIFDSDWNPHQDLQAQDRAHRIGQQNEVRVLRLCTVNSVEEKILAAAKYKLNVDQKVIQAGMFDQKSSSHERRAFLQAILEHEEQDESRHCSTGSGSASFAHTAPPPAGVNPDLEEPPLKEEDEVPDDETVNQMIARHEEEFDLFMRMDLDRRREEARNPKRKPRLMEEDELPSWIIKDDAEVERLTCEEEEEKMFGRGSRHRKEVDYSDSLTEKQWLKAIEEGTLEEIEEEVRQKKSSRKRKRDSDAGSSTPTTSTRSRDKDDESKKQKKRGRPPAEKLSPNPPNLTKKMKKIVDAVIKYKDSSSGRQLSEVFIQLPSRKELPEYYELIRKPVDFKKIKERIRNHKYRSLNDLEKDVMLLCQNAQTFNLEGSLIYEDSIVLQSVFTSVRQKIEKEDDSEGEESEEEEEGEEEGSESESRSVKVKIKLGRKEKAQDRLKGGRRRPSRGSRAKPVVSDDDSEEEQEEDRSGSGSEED
Procedure: (§1) Example-P3: Determination of SMARCA2 and SMARCA4 Degradation in MV-4-11 Cells by Western Blot
(§2) MV-4-11 (CRL-9591™) cells were plated in 6 well plates using complete Iscove's Modified Dulbecco's Medium. On the third day, compounds of present invention were added to cells from 10 mM stocks made in DMSO (Sigma Cat no. D2650). Each concentration of compound was tested with DMSO not exceeding final percentage of 0.1 in the cells. Cells were incubated with the compound for 16 hours followed by harvesting with 1×RIPA lysis buffer (Thermo Fischer, catalogue number #89900) containing protease inhibitor cocktail (Sigma catalogue number #P-8340). Equal amount of protein was loaded on SDS PAGE gel for electrophoresis. Western blot was carried out for detection of either SMARCA2 (Cell signalling technologies, catalogue number #11966) or SMARCA4 antibody (Cell signalling technologies, catalogue number #52251). Beta-Tubulin antibody (Cell signalling technologies, catalogue number #86298) was used as loading control. Percentage of SMARCA2 or SMARCA4 degradation was calculated using formula % Degradation=100−(normalized band intensity in treated sample/normalized band intensity in DMSO sample)*100. Here, “ND” refers to Not determined.

SK-MEL-5 cells = assay: Anti proliferative activity in SK-MEL-5 cells by Cell Titer Glo (Promega) assay; details: Homo sapiens, retreatment on Day 4, terminated on day 8, CellTiter-Glo
Procedure: Example-P1: Determination of Anti Proliferative Activity of Compounds in Cell Lines SK-MEL-5 by Cell Titer Glo® (Promega) Assay
Cells were seeded into 96-well plates and the plate was incubated in 37 degrees incubator overnight. The next day, compounds were diluted 3-fold to cover 9-point concentration range in DMSO. Intermediate plate dilution was prepared in media followed with compound treatment in cells. Retreatment of cells with compound dilutions was performed on Day 4 and assay was terminated on day 8 for SK-MEL-5 cells using CellTiter-Glo and the plate was kept on orbital shaker for 20 minutes at RT. Assay was terminated on day 6 for RERF-LC-A1 without a compound retreatment. Luminescence signal was recorded on VICTOR^3 instrument. Percent inhibition of proliferation was calculated at each concentration and plotted against the compound concentration. EC50 value was calculated using GraphPad® software.

SMARCA2 = molecular target: T2, SMARCA2 (Homo sapiens, UniProt P51531); assay: SMARCA2 degradation in MV-4-11 cells by Western blot; details: MV4-11, 16 h, at 100 nM, vs DMSO, read-out: Percent degradation SMARCA2
T2 construct: endogenous in cells; host or cells: MV-4-11 (CRL-9591)
T2 sequence (P51531 whole entry): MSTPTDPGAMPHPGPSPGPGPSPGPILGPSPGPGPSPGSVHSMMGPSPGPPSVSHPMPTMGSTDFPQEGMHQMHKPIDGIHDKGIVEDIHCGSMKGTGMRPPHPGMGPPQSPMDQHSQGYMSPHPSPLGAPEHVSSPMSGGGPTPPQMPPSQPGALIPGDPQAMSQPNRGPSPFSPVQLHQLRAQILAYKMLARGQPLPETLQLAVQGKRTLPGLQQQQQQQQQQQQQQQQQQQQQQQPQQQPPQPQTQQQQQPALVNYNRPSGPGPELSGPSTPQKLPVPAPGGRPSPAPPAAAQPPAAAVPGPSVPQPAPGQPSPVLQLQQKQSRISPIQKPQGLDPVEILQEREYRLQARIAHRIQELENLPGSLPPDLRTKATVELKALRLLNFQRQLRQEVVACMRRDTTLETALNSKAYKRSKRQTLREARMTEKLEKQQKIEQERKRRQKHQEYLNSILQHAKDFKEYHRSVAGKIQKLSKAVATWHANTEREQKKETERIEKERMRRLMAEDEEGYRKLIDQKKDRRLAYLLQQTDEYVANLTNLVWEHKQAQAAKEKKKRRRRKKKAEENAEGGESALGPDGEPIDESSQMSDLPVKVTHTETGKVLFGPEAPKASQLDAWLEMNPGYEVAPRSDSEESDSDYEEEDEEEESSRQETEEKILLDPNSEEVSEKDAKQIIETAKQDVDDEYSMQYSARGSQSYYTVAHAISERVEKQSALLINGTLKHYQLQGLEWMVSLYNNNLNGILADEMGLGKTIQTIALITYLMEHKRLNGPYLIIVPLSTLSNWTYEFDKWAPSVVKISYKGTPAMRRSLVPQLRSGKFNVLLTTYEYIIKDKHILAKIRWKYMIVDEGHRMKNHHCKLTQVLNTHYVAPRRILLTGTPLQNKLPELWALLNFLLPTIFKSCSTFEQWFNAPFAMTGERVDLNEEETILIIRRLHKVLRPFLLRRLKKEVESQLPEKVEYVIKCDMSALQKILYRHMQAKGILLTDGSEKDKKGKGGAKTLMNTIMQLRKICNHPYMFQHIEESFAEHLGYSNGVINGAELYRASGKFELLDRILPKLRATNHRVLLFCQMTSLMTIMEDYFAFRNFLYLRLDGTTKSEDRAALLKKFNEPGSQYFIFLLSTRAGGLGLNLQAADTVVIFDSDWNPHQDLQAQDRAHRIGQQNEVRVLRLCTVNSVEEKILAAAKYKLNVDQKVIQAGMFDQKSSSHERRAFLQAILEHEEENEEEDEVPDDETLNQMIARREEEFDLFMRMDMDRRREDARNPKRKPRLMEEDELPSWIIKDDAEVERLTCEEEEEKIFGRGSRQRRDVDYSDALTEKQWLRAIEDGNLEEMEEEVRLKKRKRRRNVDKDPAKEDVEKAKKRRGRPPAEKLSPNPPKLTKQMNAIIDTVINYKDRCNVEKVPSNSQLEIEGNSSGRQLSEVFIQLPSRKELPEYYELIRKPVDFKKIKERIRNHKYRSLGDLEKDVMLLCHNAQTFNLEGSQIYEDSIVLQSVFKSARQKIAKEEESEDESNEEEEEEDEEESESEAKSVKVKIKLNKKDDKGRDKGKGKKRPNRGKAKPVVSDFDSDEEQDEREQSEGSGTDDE
Procedure: as §1, §2

MV-4-11 cells = assay: Anti proliferative activity in MV-4-11 cells by Cell Titer Glo (Promega) assay; details: Homo sapiens, MV4-11, 72 h, 3 days, CellTiter-Glo
Procedure: Example-P2: Determination of Anti Proliferative Activity of Compounds in Cell Lines MV-4-11 by Cell Titer Glo® (Promega) Assay
MV-4-11 (CRL-9591™) cells were seeded in 96 well plate flat black clear bottom plates (Corning, Cat. No 3904) using complete DMEM Medium. Next day, selected compounds of the present invention were added to cells from 10 mM stocks made in DMSO (Sigma Cat no. D2650). Each concentration of compound was tested in triplicate with DMSO concentration at a final percentage not exceeding 0.3 in the cells. After the incubation of MV-4-11 cells with compound for 3 days; assay was terminated using 100 μl of CellTiter Glo® reagent (Promega, Cat. no G7572). CellTiter-Glo® Luminescent reagent determines the number of viable cells based on quantitation of ATP present which is an indicator of cell number and metabolic activity. Luminescence readings were taken in Victor-5 instrument. Percent inhibition of proliferation was calculated using formula, % inhibition=100−(luminescence value of test/luminescence value of DMSO control)*100. DMSO control (0%)=Cells in complete media with DMSO; blank=Media alone containing DMSO. EC50 was calculated using graph pad prism software.

Row | Compound | inhibition at 0.1 µM (SMARCA4) [%] | EC50 (SK-MEL-5 cells) [nM] | inhibition at 0.1 µM (SMARCA2) [%] | EC50 (MV-4-11 cells) [nM]
1 | Cn1c2cc(N3CCC(N4CCC(c5ccc6c(c5)CN(C5CCC(=O)NC5=O)C6=O)CC4)CC3)ccc2n2c3cccc(Br)c3c(=O)nc12 (stereo not drawn) [Compound 14, 3-(5-(1′-(4-bromo-7-methyl-5-oxo-5,7-dihydrobenzo[4,5]imidazo[1,2-a]quinazolin-9-yl)-[1,4′-bipiperidin]-4-yl)-1-oxoisoindolin-2-yl)piperidine-2,6-dione] | 94 | < 10 | 100 | < 10
2 | O=C1CCC(Nc2ccc(C3CCN(C4CCN(c5ccc6c(c5)n(C5CCCC5)c5nc(=O)c7c(Br)cccc7n65)CC4)CC3)c(F)c2)C(=O)N1 (stereo not drawn) [Compound 3, 3-((4-(1′-(4-bromo-7-cyclopentyl-5-oxo-5,7-dihydrobenzo[4,5]imidazo[1,2-a]quinazolin-9-yl)-[1,4′-bipiperidin]-4-yl)-3-fluorophenyl)amino)piperidine-2,6-dione] | 99 | < 10 | 100 | < 10
3 | O=C1CCC(c2ccc(C3CCN(C4CCN(c5ccc6c(c5)n(C5CCCC5)c5nc(=O)c7c(Cl)cccc7n65)CC4)CC3)cc2)C(=O)N1 (stereo not drawn) [Compound 22, 3-(4-(1′-(4-chloro-7-cyclopentyl-5-oxo-5,7-dihydrobenzo[4,5]imidazo[1,2-a]quinazolin-9-yl)-[1,4′-bipiperidin]-4-yl)phenyl)piperidine-2,6-dione-HCl salt] | 56 | < 10 | 89 | < 10
4 | Cn1c2cc(N3CCC(N4CCC(c5ccc6c(c5)CN(C5CCC(=O)NC5=O)C6=O)CC4)CC3)ccc2n2c3cccc(N)c3c(=O)nc12 (stereo not drawn) [Compound 15, 3-(5-(1′-(4-amino-7-methyl-5-oxo-5,7-dihydrobenzo[4,5]imidazo[1,2-a]quinazolin-9-yl)-[1,4′-bipiperidin]-4-yl)-1-oxoisoindolin-2-yl)piperidine-2,6-dione-HCl salt] | 95 | < 10 | 96 | < 10
5 | O=C1CCC(c2ccc(N3CCN(C4CCN(c5ccc6c(c5)n(C5CCCC5)c5nc(=O)c7c(Br)cccc7n65)CC4)CC3)cc2)C(=O)N1 (stereo not drawn) [Compound 6, 3-(4-(4-(1-(4-bromo-7-cyclopentyl-5-oxo-5,7-dihydrobenzo[4,5]imidazo[1,2-a]quinazolin-9-yl)piperidin-4-yl)piperazin-1-yl)phenyl)piperidine-2,6-dione] | 90 | < 10 | 96 | > 100
6 | O=C1CCC(N2Cc3cc(C4CCN(C5CCN(c6ccc7c(c6)n(C6CCCC6)c6nc(=O)c8c(Br)cccc8n76)CC5)CC4)ccc3C2=O)C(=O)N1 (stereo not drawn) [Compound 1, 3-(5-(1′-(4-Bromo-7-cyclopentyl-5-oxo-5,7-dihydrobenzo[4,5]imidazo[1,2-a]quinazolin-9-yl)-[1,4′-bipiperidin]-4-yl)-1-oxoisoindolin-2-yl)piperidine-2,6-dione] | 98 | < 10 | 100 | < 10
7 | O=C1CCC(N2Cc3cc(C4CCN(C5CCN(C6CCN(c7ccc8c(c7)n(C7CCCC7)c7nc(=O)c9c(Br)cccc9n87)CC6)CC5)CC4)ccc3C2=O)C(=O)N1 (stereo not drawn) [Compound 7, 3-(5-(1″-(4-bromo-7-cyclopentyl-5-oxo-5,7-dihydrobenzo[4,5]imidazo[1,2-a]quinazolin-9-yl)-[1,4′:1′,4″-terpiperidin]-4-yl)-1-oxoisoindolin-2-yl)piperidine-2,6-dione] | 99 | < 10 | 99 | < 10
8 | O=C1CCC(N2Cc3cc(C4CCN(C5CCN(c6ccc7c(c6)n(C6CCCC6)c6nc(=O)c8c(Cl)cccc8n76)CC5)CC4)ccc3C2=O)C(=O)N1 (stereo not drawn) [Compound 9, 3-(5-(1′-(4-chloro-7-cyclopentyl-5-oxo-5,7-dihydrobenzo[4,5]imidazo[1,2-a]quinazolin-9-yl)-[1,4′-bipiperidin]-4-yl)-1-oxoisoindolin-2-yl)piperidine-2,6-dione] | 99 | < 10 | 90 | < 10
9 | O=C1CCC(Nc2ccc(C3CCN(C4CCN(c5ccc6c(c5)n(C5CCCC5)c5nc(=O)c7c(Cl)cccc7n65)CC4)CC3)c(F)c2)C(=O)N1 (stereo not drawn) [Compound 23, 3-((4-(1′-(4-chloro-7-cyclopentyl-5-oxo-5,7-dihydrobenzo[4,5]imidazo[1,2-a]quinazolin-9-yl)-[1,4′-bipiperidin]-4-yl)-3-fluorophenyl)amino)piperidine-2,6-dione-HCl salt] | 98 | < 10 | 99 | < 10
10 | CC(C)n1c2cc(N3CCC(N4CCC(c5ccc(C6CCC(=O)NC6=O)cc5)CC4)CC3)ccc2n2c3cccc(N)c3c(=O)nc12 (stereo not drawn) [Compound 21, 3-(4-(1′-(4-amino-7-isopropyl-5-oxo-5,7-dihydrobenzo[4,5]imidazo[1,2-a]quinazolin-9-yl)-[1,4′-bipiperidin]-4-yl)phenyl)piperidine-2,6-dione] | 75 | 10 to 100 | 86 | > 100
11 | O=C1CCC(Oc2ccc(C3CCN(C4CCN(c5ccc6c(c5)n(C5CCCC5)c5nc(=O)c7c(Br)cccc7n65)CC4)CC3)cc2)C(=O)N1 (stereo not drawn) [Compound 2, 3-(4-(1′-(4-bromo-7-cyclopentyl-5-oxo-5,7-dihydrobenzo[4,5]imidazo[1,2-a]quinazolin-9-yl)-[1,4′-bipiperidin]-4-yl)phenoxy)piperidine-2,6-dione-TFA salt] | 100 | < 10 | 100 | < 10
12 | Cn1c2cc(N3CCC(N4CCC(c5ccc(NC6CCC(=O)NC6=O)cc5F)CC4)CC3)ccc2n2c3cccc(Br)c3c(=O)nc12 (stereo not drawn) [Compound 16, 3-((4-(1′-(4-bromo-7-methyl-5-oxo-5,7-dihydrobenzo[4,5]imidazo[1,2-a]quinazolin-9-yl)-[1,4′-bipiperidin]-4-yl)-3-fluorophenyl)amino)piperidine-2,6-dione] | 100 | < 10 | 99 | < 10
13 | Nc1cccc2c1c(=O)nc1n(C3CCCC3)c3cc(N4CCC(N5CCC(c6ccc(C7CCC(=O)NC7=O)cc6)CC5)CC4)ccc3n21 (stereo not drawn) [Compound 25, 3-(4-(1′-(4-amino-7-cyclopentyl-5-oxo-5,7-dihydrobenzo[4,5]imidazo[1,2-a]quinazolin-9-yl)-[1,4′-bipiperidin]-4-yl)phenyl)piperidine-2,6-dione-HCl salt] | 33 | < 10 | 67 | 10 to 100
14 | Nc1cccc2c1c(=O)nc1n(C3CCCC3)c3cc(N4CCC(N5CCC(c6ccc7c(c6)CN(C6CCC(=O)NC6=O)C7=O)CC5)CC4)ccc3n21 (stereo not drawn) [Compound 8, 3-(5-(1′-(4-amino-7-cyclopentyl-5-oxo-5,7-dihydrobenzo[4,5]imidazo[1,2-a]quinazolin-9-yl)-[1,4′-bipiperidin]-4-yl)-1-oxoisoindolin-2-yl)piperidine-2,6-dione-HCl salt] | 99 | < 10 | 92 | < 10
15 | Cn1c2cc(N3CCC(N4CCC(c5ccc(C6CCC(=O)NC6=O)cc5)CC4)CC3)ccc2n2c3cccc(Br)c3c(=O)nc12 (stereo not drawn) [Compound 17, 3-(4-(1′-(4-bromo-7-methyl-5-oxo-5,7-dihydrobenzo[4,5]imidazo[1,2-a]quinazolin-9-yl)-[1,4′-bipiperidin]-4-yl)phenyl)piperidine-2,6-dione] | 24 | < 10 | 68 | < 10
